Source: patent US20030186946A1, “Suppression of cytotoxic protein conformers” (priority 2002, published 2003)

Target: T1, human amylin (Homo sapiens, UniProt P10997)
T1 sequence (P10997 34-70 limits assumed): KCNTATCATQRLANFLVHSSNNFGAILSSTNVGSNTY
Test: Circular dichroism assay of amylin conformation
Assay type: biochemical
Set-up: Amylin is a 37-residue; C-terminally amidated peptide having a disulfide bridge between the cysteines at residues 2 and 7; purchased Bachem Calif; (Torrance, Calif.); host or cells: chemical synthesis
Conditions: for conformation of human amylin (circular dichroism): approximately 4 μM human amylin, 4% HFIP (FIG. 9E)
Method: Preparation of monomeric human amylin. Human amylin (batch 0551805) was obtained from Bachem (Torrence, Calif.). Stock solutions of amylin were prepared as described by Padrick and Miranker, 2002. Human amylin was solubilised in 6M guanidine HCL/50 mM potassium phosphate, pH 6.0, and loaded onto a C18 reversed-phase spin column (Harvard Biosciences). The column was then washed sequentially with 10% Acetonitrile, 0.2% trifluoroacetic acid and water. Monomeric amylin was eluted in 100% HFIP (hexafluoroisopropanol). This stock solution of amylin was then used for all Circular Dichroism experiments.
Circular Dichroism Assay. Circular dichroism spectra were measured on a Pi-Star 180 spectrometer (Applied Photophysics, Leatherhead, UK). Measurements were carried out in either 100% HFIP or 100 mM potassium chloride/50 mM potassium phosphate buffer (pH 7.4) and 2.5% HFIP at 25° C. A stock solution of monomeric human amylin was diluted into buffer to a final concentration of 2.5% HFIP and approximately 5 μM amylin to initiate amylin fibril formation. Spectra were collected at 1 nm intervals with a sample period of 25 μs and adaptive sampling of ±0.01 mdeg. Measurements were recorded immediately following addition of the human amylin stock solution to phosphate buffer in the presence or absence of Congo red or amaranth.
Human amylin (100 μg) was purified on a C18 spin column to give a stock solution in 100% HFIP as described in the methods. A spectrum of this stock solution was collected at 1 nm intervals in a 0.1 cm path length quartz cell (FIG. 9B). The stock solution of monomeric amylin in 100% HFIP was diluted to 2.5% HFIP in 100 mM potassium chloride/50 mM potassium phosphate buffer (pH 7.4). Human amylin concentration was approximately 5 μM. A spectrum was collected at 1 nm intervals in a 0.5 cm path length quartz cell in the absence (FIG. 9C) or presence of 20-fold molar excess of Congo red over human amylin (FIG. 9D). The stock solution of monomeric amylin in 100% HFIP was diluted to 4% HFIP in 100 mM potassium chloride/50 mM potassium phosphate buffer (pH 7.4) containing decreasing concentrations of Congo red as indicated in the Figure. Human amylin concentration was approximately 4 μM. Spectra were collected at 1 nm intervals in a 0.1 cm path length quartz cell (FIG. 9E). The stock solution of monomeric amylin in 100% HFIP was diluted to 4% HFIP in 100 mM potassium chloride/50 mM potassium phosphate buffer (pH 7.4) containing 200 μM Amaranth. Human amylin concentration was approximately 4 μM. Spectra were collected at 1 nm intervals in a 0.1 cm path length quartz cell (FIG. 9F).

Congo red
conformation of human amylin (circular dichroism) (0.8 μM Congo red after 1 hr): β-sheet | conformation of human amylin (circular dichroism) (0.8 μM Congo red): random coil | conformation of human amylin (circular dichroism) (4 μM Congo red): α-helix | conformation of human amylin (circular dichroism) (200 μM Congo red): α-helix | effect on β-sheet conformer formation of human amylin (circular dichroism) (20-fold molar excess of Congo red, approximately 5 μM human amylin, 2.5% HFIP, pH 7.4 (FIG. 9D)): prevents formation of β-sheet conformers | time amylin remains stable in α-helical structure (excess of Congo red): at least 24 hr
